# Read-outs that look alike come from different tables or passages of the source.
# Experiments:
# [1] = tested on: rabbit skeletal, porcine cardiac and scallop striated myosins, vertebrate non-muscle myosin IIs and Dictyostelium discoideum myosin II; design: method as in PMID 15548862; details: read-out: IC50 actin-activated ATPase activity; cited from earlier work
# zebrafish embryo = tested on: zebrafish embryo; design: method as in PMID 24954740; details: after 24 hours of incubation; cited from earlier work
# [2] = Photoconversion / photostability under 480 ± 10 nm irradiation; details: 5 μM, up to 15 minutes
# Protocol: We compared para-aminoblebbistatin’s photostability to blebbistatin’s by irradiating the molecules in assay buffer at 480 ± 10 nm for different lengths of time (which is a typical GFP excitation range) and recorded the absorption spectra afterwards (Fig. 2d).
# Their absorbance spectra were measured at each time point.
# Acanthamoeba myosin II = tested on: Acanthamoeba myosin II; design: method as in PMID 15548862; details: read-out: IC50 actin activated ATPase activity; cited from earlier work
# zebrafish embryos = experiment: Lifespan cytotoxicity assay; details: all blebbistatin concentrations
# Protocol: Transgenic Tg(−8.0cldnb:lynEGFP)^zf106 (cldnb:EGFP)[25] zebrafish (Danio rerio) were maintained in the animal facility of Eötvös Loránd University. For the experiments investigating the skeletal and heart muscle of zebrafish, 6 dpf embryos were used. For cytotoxicity assays, 2 dpf embryos were dechorionated and placed in the indicated reagent concentrations. Embryos were kept in E3 medium (5 mM NaCl, 0.33 mM MgCl2, 0.33 mM CaCl2 and 0.17 mM KCl).
# For the fast escape response experiments, 6 dpf embryos were placed in 50 μl drops of E3 medium on a plastic plate. […] 10 taps were carried out with 1 minute intervals every hour for 4 hours. The tapping force was standardized. The videos were recorded by a Ximea Camera (MQ003MG-CM) at 500 fps for 2 s. Data were analyzed by Flote software version 2.1 and maximal angular velocity parameters of C-start reflex were quantified. For the experiments investigating the effect of the inhibitors on the heart muscle of zebrafish, 6 dpf larvae were embedded in 1% agarose and kept in E3 in the presence of 20 μM concentrations of the inhibitors. […] Embryos were considered to be dead when the whole body became necrotic and the heart stopped beating. Dead embryos were removed from the experiment to prevent contamination. Images of zebrafish were captured with a Zeiss Stereo Lumar V12 microscope using a NeoLumar S 0.8x FWD 80mm objective at 50× zoom.
# HeLa cells = tested on: HeLa cells; design: method as in PMID 15676022; details: compared to 100% of the control; cited from earlier work
# [3] = tested on: rabbit skeletal muscle myosin II; design: method as in PMID 15205456; details: cited from earlier work
# smooth muscle myosin II = tested on: smooth muscle myosin II; design: method as in PMID 15548862; details: read-out: IC50 actin activated ATPase activity; cited from earlier work
# [4] = cited from earlier work
# [5] = tested on: HeLa Kyoto H2B-mCherry eGFP-α-tubulin cells; experiment: Cell growth assay (cell number, cytokinesis)
# Protocol: Cells incubated in different concentrations of the inhibitors were counted on each day for three days.
# [6] = target: T1, Dictyostelium discoideum myosin II motor domain (DdMD) (Dictyostelium discoideum, UniProt P08799); experiment: biochemical; details: for IC50: 20 °C
# T1 construct: Dictyostelium discoideum myosin II motor domain (DdMD)
# T1 sequence (P08799 86-759 limits assumed): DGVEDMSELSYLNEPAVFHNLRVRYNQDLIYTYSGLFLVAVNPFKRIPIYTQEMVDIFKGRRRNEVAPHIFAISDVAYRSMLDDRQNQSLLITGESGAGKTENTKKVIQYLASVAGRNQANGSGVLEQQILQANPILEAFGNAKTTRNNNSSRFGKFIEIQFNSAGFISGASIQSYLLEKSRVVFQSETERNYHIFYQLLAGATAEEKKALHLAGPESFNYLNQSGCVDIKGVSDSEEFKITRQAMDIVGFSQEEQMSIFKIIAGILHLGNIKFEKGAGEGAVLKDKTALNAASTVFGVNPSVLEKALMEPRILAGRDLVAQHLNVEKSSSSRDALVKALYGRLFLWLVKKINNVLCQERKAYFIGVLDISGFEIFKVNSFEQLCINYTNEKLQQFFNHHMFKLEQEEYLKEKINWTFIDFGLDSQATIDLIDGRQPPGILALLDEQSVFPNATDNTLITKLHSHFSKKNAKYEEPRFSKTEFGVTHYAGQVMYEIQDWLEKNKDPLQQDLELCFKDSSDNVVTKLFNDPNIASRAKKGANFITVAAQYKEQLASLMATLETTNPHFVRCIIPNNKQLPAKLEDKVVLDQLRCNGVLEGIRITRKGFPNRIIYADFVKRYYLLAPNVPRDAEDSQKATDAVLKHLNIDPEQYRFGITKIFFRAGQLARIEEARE
# Protocol: Myosin and actin together with the indicated concentration of the inhibitor were pre-incubated for 5 minutes at room temperature and the measurements were initiated with 1 mM ATP. Data were corrected for background ATPase activity of actin. G-actin was prepared accordingly from rabbit skeletal muscle[24] and polymerized by 2 mM MgCl2 for 1 hour at room temperature. Measurements were performed in low salt buffer containing 5 mM HEPES, 2 mM MgCl2, 0.1 mM EGTA and 2 mM DTT at pH 7.2 or assay buffer containing 20 mM HEPES, 40 mM NaCl, 4 mM MgCl2 at pH 7.3 for basal ATPase activity measurements with DdMD.
# [7] = pH 7.3
# Protocol: (§1) 50 μM of the inhibitors were dissolved in assay buffer (see Experimental Procedures) containing 0.1 or 1 vol/vol% DMSO, centrifuged at the indicated times and the concentration of the supernatants were determined at each time point (Fig. 2a,b).
# (§2) The DMSO content was 1%. […] The experiments were repeated three times.
# Protocol for physchem: as §1, §2
structure (smiles),measurement,setting,value
Cc1ccc2c(c1)C(=O)C1(O)CCN(c3ccccc3)C1=N2 (stereo not drawn) [blebbistatin],IC50,[1],0.5 to 5 µM
same,Toxicity in live zebrafish embryo tests,zebrafish embryo,highly toxic
same,Photostability: change of absorption spectrum on irradiation,[2],changed markedly
same,IC50,Acanthamoeba myosin II,83 µM
same,Time at which all embryos died,zebrafish embryos,69 h
same,Motility of HeLa cells on 2D surfaces,HeLa cells,~ 140%
same,on-rate constant kon,[3],3400 M⁻¹ s⁻¹
same,IC50,smooth muscle myosin II,79.6 µM
same,Solubility (limited solubility),[4]; depending on the conditions of the measurements,7 to 20 µM
same,Concentration above which slow precipitation is observed,[4]; water,above 10 μM
Cc1ccc2c(c1)C(=O)[C@]1(O)CCN(c3ccc(N)cc3)C1=N2 [para-aminoblebbistatin],IC50,"[5]; Homo sapiens, HeLa Kyoto, 72 h, read-out: IC50 of the inhibition of cell proliferation",17.8 ± 4.7 µM
same,Fold weaker IC50 than blebbistatin's (cell proliferation),[5]; day 3,2–3 times
same,Maximal inhibition of actin activated ATPase of DdMD,[6],80%
same,Maximal inhibition of basal ATPase of DdMD,[6],90%
same,IC50,"[6]; 15 μM actin, read-out: IC50 actin activated ATPase activity of DdMD",6.7 ± 1.9 µM
same,IC50,[6]; read-out: IC50 basal ATPase of DdMD,6.6 ± 2 µM
same,Fold higher IC50 of AmBleb on DdMD,[6]; comparator not named (matches actin activated ratio to Bleb),1.7 times
same,Time the supernatant concentration stayed constant,[7]; 298 μM,4 h
same,Solubility,[7],426 ± 1.7 µM
same,Solubility,physchem; Solubility in aqueous buffer,440 µM
same,Solubility,"physchem; pH 7.3, Solubility",298 ± 2.5 µM

# Reference: article PMC4886532, “A highly soluble, non-phototoxic, non-fluorescent blebbistatin derivative” (Scientific Reports, 2016)
